Experiment [1] deals with E. coli AG100. The experiment is described as follows: Membrane potential assay (BacLight, DiOC2(3)). As to conditions: positive control 156 µM (half MIC).
For experiment [2], the system named is E. coli AG100A (AcrAB pump-deficient). The experiment in a line: MIC, broth microdilution. Format: cell-based, Escherichia coli. As to conditions: Escherichia coli. On the technique in general: Broth dilution looks for growth in wells or tubes with falling amounts of substance.
Experiment [3] relates to E. coli AG100tet (AcrAB overexpressing). The experiment in a line: MIC, broth microdilution. It counts as cell-based, Escherichia coli. As to conditions: Escherichia coli.
For another experiment, the system named is E. coli AG100A. The experiment is described as follows: microbe, parasite or virus in culture. It counts as cell-based, Escherichia coli. Conditions: Escherichia coli, AG100A, read-out: MIC without efflux inhibitor. How it is done: The minimum inhibitory concentrations (MICs) were determined using the broth microdilution method according to the CLSI guidelines ([Clinical and Laboratory Standards Institute, 2014]). […] Two-fold serial dilutions of the compounds were made to achieve the following concentrations: 320 µM–40 µM. The MICs were determined as the lowest concentration at which no visible growth was observed after 18 h of incubation at 37 °C. The assays were performed in triplicate and the MIC value was given as result of at least two concordant values.

For another experiment, the system named is E. coli AG100tet. The experiment in a line: microbe, parasite or virus in culture. It counts as cell-based, Escherichia coli. Conditions: Escherichia coli, AG100TET, read-out: MIC without efflux inhibitor, AG100tet; inhibitor 0 μM. The procedure: (§1) The assays were performed in triplicate and the MIC value was given as result of at least two concordant values.

Experiment [4] deals with E. coli AG100. The experiment in a line: Checkerboard synergy assay (MIC of antibiotics/EtBr with efflux inhibitor). Format: cell-based, Escherichia coli. Conditions: Escherichia coli, AG100, AG100; inhibitor 0 μM; read-out: MIC without efflux inhibitor. How it is done: as §1
For experiment [5], the system named is E. coli K-12 AG100 (wild-type). The experiment is described as follows: MIC, broth microdilution. Format: cell-based. As to conditions: Escherichia coli; E. coli AG100 wild-type; read-out: MIC.

Each structure is given as a SMILES string. ≈ marks a conversion by molar mass, not a printed value.

`N#CC(C#N)=NNc1cccc(Cl)c1` [CCCP, carbonyl cyanide-m-chlorophenylhydrazone]: the “percentage of depolarized cells (membrane potential collapse)” value in the experiment with E. coli AG100 [1] is recorded as “over 95%”.

For `Cc1onc(-c2ccccc2)c1C(=O)N[C@@H]1C(=O)N2[C@@H]1SC(C)(C)[C@@H]2C(=O)O` [OXA, oxacillin], the MIC in experiment [2] is 2 µg/mL (≈ 4.98 µM); in experiment [3], greater than 2050 µg/mL; with E. coli AG100A, 2 µg/mL (≈ 4.98 µM); in the experiment with E. coli AG100tet it was greater than 2050 µg/mL; with E. coli AG100 [4] it was 512 µg/mL; in experiment [5] it was 512 µg/mL (≈ 1280 µM).

`CN(C)[C@@H]1C(O)=C(C(N)=O)C(=O)[C@@]2(O)C(O)=C3C(=O)c4c(O)cccc4[C@@](C)(O)[C@H]3C[C@@H]12` [TET, tetracycline]: the MIC is 0.5 µg/mL (≈ 1.13 µM) in experiment [2], 64 µg/mL (≈ 144 µM) in experiment [3], 0.5 µg/mL (≈ 1.13 µM) with E. coli AG100A and 64 µg/mL (≈ 144 µM) with E. coli AG100tet.

The values are drawn from article PMC5433425 (PeerJ, 2017).
